Test results as given in the supplement of paper PMC11208160.

assay: recombinant barcode read abundance after kanamycin selection (control-corrected) (log10(CPM+1)); higher = more efficient recombination; sequences stand for … in AGTGCAGAGAAAATCGGCCAGTTTTCTCTGCCTGCAGTCCGCATGCCGT…AGATTTATGCAGCGGACTGCCTTTCTCCCAAAGTGATAAACCGGACAGTATCATGGACCGGTTTTCCCGGTAATCCGTATTTGCAAGGTTGGTTTCACT; site = the 11-nt target
Experimental: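 Pooled E. coli target-specificity screen for the IS621 bridge recombinase. Each library plasmid pairs an 11-nt target (CT core) with a bridge RNA whose target-binding loop (9-nt LTG + 4-nt RTG) is reprogrammed; the rest of the 177-nt WT IS621 bridge RNA scaffold is fixed. The plasmid is co-electroporated with a WT donor plasmid; recombinase is induced with 0.1 mM IPTG and recombinants are selected on kanamycin. Recombinant barcodes are sequenced, converted to CPM, averaged over two biological replicates and corrected by the unselected control CPM. Molecule = full bridge RNA written as DNA: LTG = specificity nt 1-9, RTG = reverse complement of specificity nt 8-11, in the WT scaffold.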
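Also: IS621 recombinase and bridge RNA in Escherichia coli cells.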

In order of rising “recombinant barcode read abundance (log10)” value:
1. GACACAACTTGGGTTCTAACCTGTTGCGG (site GACAAACCTCC)  0.0119
2. CTGATGACTTGGGTTCTAACCTGTTGCCT (site CTGATTACTAG)  0.0174
3. TTAGCTTCTTGGGTTCTAACCTGTTGCCT (site TTAGCCTCTAG)  0.0176
4. AGACTTCCTTGGGTTCTAACCTGTTGCTT (site AGACGTCCTAA)  0.0179
5. TAAAAGTCTTGGGTTCTAACCTGTTGCCT (site TAAAAGCCTAG)  0.0186
6. AACGCCACTTGGGTTCTAACCTGTTGCCT (site AACGCCACTAG)  0.0293
7. GAGAGTACTTGGGTTCTAACCTGTTGCAT (site GAGTGTACTAT)  0.0293
8. TACAATTCTTGGGTTCTAACCTGTTGCAT (site TACAATTCTAT)  0.03
9. CGTCTAGCTTGGGTTCTAACCTGTTGCCA (site CGTGGAGCTTG)  0.0343
10. AGCCCTCCTTGGGTTCTAACCTGTTGCTT (site AGCCCTCCTTA)  0.0347
11. CTATGTGCTTGGGTTCTAACCTGTTGCGT (site CTATGTGCTAA)  0.0372
12. CCTACTCCTTGGGTTCTAACCTGTTGCAG (site CCTACTACTCG)  0.0435
13. TGGCAGTCTTGGGTTCTAACCTGTTGCCT (site TGGCAGCCTAG)  0.0447
14. ACTTTGTCTTGGGTTCTAACCTGTTGCCT (site ACGTTGTCTAG)  0.0449
15. TACGATACTTGGGTTCTAACCTGTTGCGT (site CTACGACCTCT)  0.0489
16. CTACGCTCTTGGGTTCTAACCTGTTGCAC (site CTACGGTCTGT)  0.0577
17. TACCCTTCTTGGGTTCTAACCTGTTGCGT (site CCTAAGCCTCA)  0.0691
18. TGTAGTACTTGGGTTCTAACCTGTTGCCT (site TGGAGTACTAA)  0.0714
19. CAGGCGACTTGGGTTCTAACCTGTTGCCT (site CAGGCGACTAG)  0.0758
20. GTCAAAGCTTGGGTTCTAACCTGTTGCCA (site GTCAAAGCTTG)  0.0767
21. TCCGCTTCTTGGGTTCTAACCTGTTGCCT (site TCCGCTGCTAG)  0.0858
22. ATTTGAACTTGGGTTCTAACCTGTTGCCT (site ATTTGAACTAG)  0.086
23. TCTAACACTTGGGTTCTAACCTGTTGCCT (site ACTAACACTAG)  0.0882
24. TCGGAGTCTTGGGTTCTAACCTGTTGCCG (site TCGGAGTCTCA)  0.0935
25. TAACGACCTTGGGTTCTAACCTGTTGCCT (site GAACGACCTAG)  0.0956
26. AGCAACACTTGGGTTCTAACCTGTTGCAG (site TCTCGTCCTTA)  0.0984
27. ATGCAATCTTGGGTTCTAACCTGTTGCCT (site ATGCAAACTAG)  0.104
28. CAATGGACTTGGGTTCTAACCTGTTGCCT (site CAGTGGACTAG)  0.106
29. TGAATTACTTGGGTTCTAACCTGTTGCCT (site TGAACTACTAG)  0.108
30. TCTAAGGCTTGGGTTCTAACCTGTTGCCT (site TCCAAGGCTAG)  0.108
31. GCCGCGCCTTGGGTTCTAACCTGTTGCAG (site GCCGCGCCTCT)  0.116
32. TACGACGCTTGGGTTCTAACCTGTTGCCT (site TATGACGCTAG)  0.128
33. GATGCTACTTGGGTTCTAACCTGTTGCGG (site GAAGCTACTAC)  0.128
34. GCCATCACTTGGGTTCTAACCTGTTGCCT (site GCCATGACTAG)  0.152
35. GCAGGGTCTTGGGTTCTAACCTGTTGCCT (site GCAAGATCTAG)  0.158
36. CTTTAATCTTGGGTTCTAACCTGTTGCCT (site CTTTAATCTAG)  0.165
37. CGACCCTCTTGGGTTCTAACCTGTTGCCT (site GGACCCTCTAG)  0.17
38. TGAGGTGCTTGGGTTCTAACCTGTTGCCT (site GGAGGGGCTAG)  0.193
39. ACTGTATCTTGGGTTCTAACCTGTTGCCT (site TCTGTATCTAG)  0.231
40. AATGCTCCTTGGGTTCTAACCTGTTGCAT (site AATGCTCCTAG)  0.248
41. TCAAAGCCTTGGGTTCTAACCTGTTGCTG (site TCAAAGCCTCA)  0.252
42. ATAACTACTTGGGTTCTAACCTGTTGCCA (site ATGTCTACTTG)  0.299
43. CAAGATGCTTGGGTTCTAACCTGTTGCCT (site CACGATGCTAG)  0.304
44. TCTTCCACTTGGGTTCTAACCTGTTGCCT (site TCTTCCACTAG)  0.385
45. CTGAAGCCTTGGGTTCTAACCTGTTGCCT (site GTGAAGCCTAG)  0.386
46. CAACCGCCTTGGGTTCTAACCTGTTGCCT (site CAACCGACTAG)  0.411
47. AGAAATTCTTGGGTTCTAACCTGTTGCCT (site AGAAATTCTAG)  0.52
48. TGCCATCCTTGGGTTCTAACCTGTTGCAT (site TGCCATCCTAT)  0.544
49. AAGATTCCTTGGGTTCTAACCTGTTGCCT (site AAGATTCCTAG)  0.575
50. TGTGAGTCTTGGGTTCTAACCTGTTGCCT (site TGTGAGTCTAC)  0.73
51. TCCCTATCTTGGGTTCTAACCTGTTGCCT (site TCCCTATCTAG)  0.758
52. TGAAATCCTTGGGTTCTAACCTGTTGCCT (site GGATATCCTAG)  0.848
53. AGTAAGCCTTGGGTTCTAACCTGTTGCCT (site AGTAAGCCTAG)  0.864
54. GGGACTTCTTGGGTTCTAACCTGTTGCAT (site GGGACTTCTAT)  0.937
55. GTTAGACCTTGGGTTCTAACCTGTTGCCT (site GTTAGACCTAG)  0.949
56. AATTGGCCTTGGGTTCTAACCTGTTGCGT (site AATCGGCCTAC)  0.976
57. GATGCTACTTGGGTTCTAACCTGTTGCAG (site GATGCTACTCT)  1.04
58. CTCAATACTTGGGTTCTAACCTGTTGCGA (site CTCAATACTTC)  1.15
59. GCTGGCCCTTGGGTTCTAACCTGTTGCCT (site GCTGGCCCTAG)  1.18
60. GGAGACGCTTGGGTTCTAACCTGTTGCCT (site GGAGACGCTAG)  1.32
61. AGGTGTCCTTGGGTTCTAACCTGTTGCTT (site AGGTGTCCTAA)  1.4
62. TCGGATACTTGGGTTCTAACCTGTTGCGT (site TCGGATACTAT)  1.41
63. TCCTAAGCTTGGGTTCTAACCTGTTGCGG (site TCCTAAGCTCC)  1.67
64. GACCCACCTTGGGTTCTAACCTGTTGCCT (site GACCCACCTAG)  1.76
65. CTATGCCCTTGGGTTCTAACCTGTTGCGA (site CTATGCCCTTC)  2.02
66. GTGAACTCTTGGGTTCTAACCTGTTGCTG (site GTGAACTCTCA)  2.33
